IC50 data for 26 compounds are collected here from US20260207602A1, “EGFR INHIBITORS” (Blueprint Medicines Corporation, priority 2022, published 2026).

Each structure is given as a SMILES string.

One experiment concerns the target T1, EGFR L858R (Homo sapiens, UniProt P00533, L858R).
T1 construct: purchased SignalChem E10-122BG
As to the kind of experiment: Biochemical EGFR inhibition assay (Caliper mobility shift), EGFR L858R. The conditions noted are these: biochemical Caliper mobility shift assay, EGFR L858R enzyme; read-out: Enz EGFR L858R IC50. In outline: (§1)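 Apparent IC50 from Caliper separation of phospho-peptide from substrate. Conditions: 2.5 µM 5-FAM peptide, 1.0 mM ATP or ATP Km, pH 7.5 HEPES buffer, room temperature, 10–20% conversion, EDTA stop.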

The next experiment concerns the target T2, EGFR (d746-750) (Homo sapiens, UniProt P00533, DEL746-750).
T2 construct: purchased SignalChem E10-122JG
As to the kind of experiment: Biochemical EGFR inhibition assay (Caliper mobility shift), EGFR (d746-750). The conditions noted are these: biochemical Caliper mobility shift assay, EGFR Exon 19-del enzyme; read-out: Enz EGFR Exon 19-del IC50. In outline:
as §1

In experiment [1] the target is intracellular phosphorylation of EGFR (Tyr1068) in PC-9 cells (Homo sapiens, UniProt P00533, DEL746-750). As to the kind of experiment: PC-9 pEGFR AlphaLISA assay. Format: cell-based. Conditions: 4 hours incubation, read-out: Phos EGFR PC9 IC50. The essentials:
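PC-9 cells (EGFR del746-750) in phenol-free DMEM/10% FBS, adhered overnight, then exposed to 10-point 4-fold compound dilutions for 4 h at 37 °C. Lysates assayed for pEGFR Tyr1068 by AlphaLISA SureFire Ultra; IC50 from percent pEGFR inhibition vs log concentration.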

T1 sequence (P00533 25-1210 L858R): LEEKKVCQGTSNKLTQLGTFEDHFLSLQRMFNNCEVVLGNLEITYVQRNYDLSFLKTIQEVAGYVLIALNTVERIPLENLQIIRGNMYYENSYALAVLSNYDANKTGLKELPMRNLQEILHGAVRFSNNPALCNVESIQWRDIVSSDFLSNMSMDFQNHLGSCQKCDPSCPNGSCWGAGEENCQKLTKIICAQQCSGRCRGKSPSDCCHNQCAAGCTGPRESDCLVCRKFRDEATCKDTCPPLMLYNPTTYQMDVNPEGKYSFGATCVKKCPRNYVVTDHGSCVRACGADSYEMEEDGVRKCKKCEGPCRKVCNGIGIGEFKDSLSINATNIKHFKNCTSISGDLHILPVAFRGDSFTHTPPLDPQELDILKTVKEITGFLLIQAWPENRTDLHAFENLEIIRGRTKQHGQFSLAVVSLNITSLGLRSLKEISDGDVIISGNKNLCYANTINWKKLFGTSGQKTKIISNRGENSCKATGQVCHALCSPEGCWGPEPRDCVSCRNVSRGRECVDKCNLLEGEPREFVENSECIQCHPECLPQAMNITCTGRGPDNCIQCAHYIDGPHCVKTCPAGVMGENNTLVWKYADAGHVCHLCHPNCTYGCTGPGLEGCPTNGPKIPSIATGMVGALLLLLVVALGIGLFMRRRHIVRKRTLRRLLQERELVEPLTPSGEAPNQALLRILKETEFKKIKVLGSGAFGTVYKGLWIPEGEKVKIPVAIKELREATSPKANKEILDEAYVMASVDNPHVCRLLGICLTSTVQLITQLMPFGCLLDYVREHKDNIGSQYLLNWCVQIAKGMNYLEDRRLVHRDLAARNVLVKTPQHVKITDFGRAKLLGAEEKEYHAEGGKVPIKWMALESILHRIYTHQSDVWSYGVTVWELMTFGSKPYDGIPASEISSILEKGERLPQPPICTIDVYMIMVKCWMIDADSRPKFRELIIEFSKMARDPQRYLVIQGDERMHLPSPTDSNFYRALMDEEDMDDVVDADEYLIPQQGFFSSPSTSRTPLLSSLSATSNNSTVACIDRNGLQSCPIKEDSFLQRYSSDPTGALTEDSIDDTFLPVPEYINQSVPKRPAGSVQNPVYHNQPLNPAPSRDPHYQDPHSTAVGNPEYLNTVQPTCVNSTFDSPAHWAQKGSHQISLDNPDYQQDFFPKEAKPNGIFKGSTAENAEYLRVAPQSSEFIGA
Sequence of intracellular phosphorylation of EGFR (Tyr1068) in PC-9 cells (P00533 with tags, fused parts or gaps DEL746-750): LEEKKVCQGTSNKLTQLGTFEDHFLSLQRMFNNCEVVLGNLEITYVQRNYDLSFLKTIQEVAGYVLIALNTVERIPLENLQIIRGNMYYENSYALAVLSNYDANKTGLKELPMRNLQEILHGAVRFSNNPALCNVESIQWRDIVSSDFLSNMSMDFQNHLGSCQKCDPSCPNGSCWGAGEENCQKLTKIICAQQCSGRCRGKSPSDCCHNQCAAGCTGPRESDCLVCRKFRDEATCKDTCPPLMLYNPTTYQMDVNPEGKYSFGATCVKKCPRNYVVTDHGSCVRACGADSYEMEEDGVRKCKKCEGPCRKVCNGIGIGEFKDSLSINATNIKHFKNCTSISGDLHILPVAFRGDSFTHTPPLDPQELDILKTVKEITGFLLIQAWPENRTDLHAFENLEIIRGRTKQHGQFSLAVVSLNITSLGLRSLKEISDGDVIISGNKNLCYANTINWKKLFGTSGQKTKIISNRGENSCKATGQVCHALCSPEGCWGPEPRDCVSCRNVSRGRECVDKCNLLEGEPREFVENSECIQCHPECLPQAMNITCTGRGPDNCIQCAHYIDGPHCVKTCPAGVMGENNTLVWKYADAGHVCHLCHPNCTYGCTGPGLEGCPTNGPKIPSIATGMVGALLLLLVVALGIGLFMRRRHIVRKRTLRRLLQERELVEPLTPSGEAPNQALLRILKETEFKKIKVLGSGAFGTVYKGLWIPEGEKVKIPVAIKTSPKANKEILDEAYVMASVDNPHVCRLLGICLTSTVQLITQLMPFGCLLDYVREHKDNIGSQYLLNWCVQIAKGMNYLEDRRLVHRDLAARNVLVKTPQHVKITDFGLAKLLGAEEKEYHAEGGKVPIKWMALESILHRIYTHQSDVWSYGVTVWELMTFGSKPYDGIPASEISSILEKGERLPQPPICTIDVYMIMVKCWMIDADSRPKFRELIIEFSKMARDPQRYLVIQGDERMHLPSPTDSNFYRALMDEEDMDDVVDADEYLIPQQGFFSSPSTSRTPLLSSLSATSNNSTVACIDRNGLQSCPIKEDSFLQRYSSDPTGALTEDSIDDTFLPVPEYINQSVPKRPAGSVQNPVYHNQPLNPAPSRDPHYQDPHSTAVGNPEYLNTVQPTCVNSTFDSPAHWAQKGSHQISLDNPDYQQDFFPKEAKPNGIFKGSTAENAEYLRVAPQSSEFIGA
T2 sequence (P00533 with tags, fused parts or gaps DEL746-750 limits assumed): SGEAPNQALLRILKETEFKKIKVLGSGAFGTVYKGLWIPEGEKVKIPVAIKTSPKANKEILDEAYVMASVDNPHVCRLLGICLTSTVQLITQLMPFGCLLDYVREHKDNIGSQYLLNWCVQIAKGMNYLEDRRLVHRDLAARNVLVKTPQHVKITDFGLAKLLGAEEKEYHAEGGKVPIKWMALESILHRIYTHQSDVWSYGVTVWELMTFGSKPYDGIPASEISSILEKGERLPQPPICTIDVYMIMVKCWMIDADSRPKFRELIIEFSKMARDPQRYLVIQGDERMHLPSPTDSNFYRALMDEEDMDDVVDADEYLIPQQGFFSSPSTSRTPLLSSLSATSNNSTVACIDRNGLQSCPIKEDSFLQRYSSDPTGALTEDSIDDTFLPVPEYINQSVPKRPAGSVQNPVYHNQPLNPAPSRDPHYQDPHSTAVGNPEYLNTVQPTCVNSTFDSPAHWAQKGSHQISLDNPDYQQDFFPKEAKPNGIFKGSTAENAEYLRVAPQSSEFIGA

As to `CN1CC[C@H](Oc2cc(-c3cnn(C)c3)cc3ncnc(Nc4ccc5ncsc5c4)c23)C[C@@H]1CO` [Example A08, [(2R,4S)-4-({4-[(1,3-benzothiazol-6-yl)amino]-7-(1-methyl-1H-pyrazol-4-yl)quinazolin-5-yl}oxy)-1-methylpiperidin-2-yl]methanol], the IC50 on EGFR L858R was not above 10 nM; at EGFR (d746-750) it was not above 10 nM; in experiment [1], 10.1 to 50 nM.
As to `CN1CC[C@H](O)[C@@H](Oc2cc(-c3cnn(C)c3)cc3ncnc(Nc4ccc5ncsc5c4)c23)C1` (single isomer, unassigned) [Example A34], the results for the 50% inhibitory concentration (IC50) (at EGFR L858R; on EGFR (d746-750); in experiment [1]) were 10.1 to 50 nM, not above 10 nM and more than 50.1 nM, respectively.
In the same order, the values of `COC[C@@H](C)Oc1cc(-c2cnn(C)c2)cc2ncnc(Nc3ccc4ncsc4c3F)c12` [Example 91, (R)-7-fluoro-N-(5-((1-methoxypropan-2-yl)oxy)-7-(1-methyl-1H-pyrazol-4-yl)quinazolin-4-yl)benzo[d]thiazol-6-amine] are not above 10 nM, not above 10 nM and not above 10 nM.
In the same order, the values of `CN1CCC(COc2cc(-c3cnn(C)c3)cc3ncnc(Nc4ccc5ncsc5c4)c23)C1=O` (stereo not drawn) [Example 61, 3-(((4-(benzo[d]thiazol-6-ylamino)-7-(1-methyl-1H-pyrazol-4-yl)quinazolin-5-yl)oxy)methyl)-1-methylpyrrolidin-2-one] are not above 10 nM, not above 10 nM and 10.1 to 50 nM.
In the same order, the values of `CN1CCC(Oc2cc(-c3cn(C)nc3OC(F)F)cc3ncnc(Nc4ccc5ncsc5c4)c23)CC1` [Example A18, N-(7-(3-(difluoromethoxy)-1-methyl-1H-pyrazol-4-yl)-5-((1-methylpiperidin-4-yl)oxy)quinazolin-4-yl)benzo[d]thiazol-6-amine] are 10.1 to 50 nM, not above 10 nM and 10.1 to 50 nM.
`Cn1cc(-c2cc(OCC3COC3)c3c(Nc4ccc5ncsc5c4)ncnc3c2)cn1` [Example 28, N-(7-(1-methyl-1H-pyrazol-4-yl)-5-(oxetan-3-ylmethoxy)quinazolin-4-yl)benzo[d]thiazol-6-amine]: the IC50 at EGFR L858R was not above 10 nM; on EGFR (d746-750), not above 10 nM; in experiment [1], 10.1 to 50 nM.
As for `COc1cc2ncnc(Nc3ccc4ncsc4c3)c2cc1NC(=O)CCN1CCCCC1` [Example 400, N-(4-(benzo[d]thiazol-6-ylamino)-7-methoxyquinazolin-6-yl)-3-(piperidin-1-yl)propanamide], the figures for the IC50 (on EGFR L858R; at EGFR (d746-750); in experiment [1]) were 10.1 to 50 nM, not above 10 nM and 10.1 to 50 nM, respectively.
Turning to `COc1nn(C)cc1-c1cc(O[C@H]2COC[C@@H]2O)c2c(Nc3ccc4ncsc4c3)ncnc2c1` (single isomer, unassigned) [Example A49], the IC50 on EGFR L858R was 10.1 to 50 nM; on EGFR (d746-750) it was not above 10 nM; in experiment [1], 10.1 to 50 nM.
Take `COc1cc2ncnc(Nc3ccc4ncsc4c3)c2cc1N[C@H]1CCN(C)C[C@@H]1F` [Example 393, N4-(benzo[d]thiazol-6-yl)-N6-((3S,4S)-3-fluoro-1-methylpiperidin-4-yl)-7-methoxyquinazoline-4,6-diamine]: the IC50 (on EGFR L858R; at EGFR (d746-750); in experiment [1]) was not above 10 nM each time.
As to `C[C@@H]1CN(c2cc(O[C@H](C)C3COC3)c3c(Nc4ccc5ncsc5c4)ncnc3c2)C[C@H](C)O1` [Example 193, N-(7-((2S,6R)-2,6-dimethylmorpholino)-5-((R)-1-(oxetan-3-yl)ethoxy)quinazolin-4-yl)benzo[d]thiazol-6-amine], the IC50 (on EGFR L858R; at EGFR (d746-750); in experiment [1]) was not above 10 nM each time.
For the compound `Cn1cc(-c2cc(OCC(=O)N3CCOCC3)c3c(Nc4ccc5ncsc5c4F)ncnc3c2)cn1` [Example 276, 2-((4-((7-fluorobenzo[d]thiazol-6-yl)amino)-7-(1-methyl-1H-pyrazol-4-yl)quinazolin-5-yl)oxy)-1-morpholinoethan-1-one], the concentration for half-maximal inhibition (IC50) (at EGFR L858R; on EGFR (d746-750); in experiment [1]) was not above 10 nM in each case.
`Cn1cc(-c2cc(O[C@@H]3CNC[C@H](F)C3)c3c(Nc4ccc5ncsc5c4)ncnc3c2)cn1` (single isomer, unassigned) [Example 335]: the IC50 (on EGFR L858R; at EGFR (d746-750); in experiment [1]) was not above 10 nM throughout.
With `Cn1cc(-c2cc(O[C@H]3COC[C@H]3F)c3c(Nc4ccc5ncsc5c4)ncnc3c2)cn1` (racemic) [Example A10, N-(5-(((3S,4R)-4-fluorotetrahydrofuran-3-yl)oxy)-7-(1-methyl-1H-pyrazol-4-yl)quinazolin-4-yl)benzo[d]thiazol-6-amine], the IC50 (at EGFR L858R; on EGFR (d746-750); in experiment [1]) was not above 10 nM each time.
Regarding `CN1CC[C@H](Oc2cc(-c3cnn(C)c3)cc3ncnc(Nc4ccc5ncsc5c4)c23)[C@@H](O)C1` (single isomer, unassigned) [Example A35], the values for the half-inhibitory concentration (IC50) (at EGFR L858R; on EGFR (d746-750); in experiment [1]) were not above 10 nM, not above 10 nM and 10.1 to 50 nM, respectively.
On to `Cn1cc(-c2cc(O[C@H]3CC[C@H]3O)c3c(Nc4ccc5ncsc5c4)ncnc3c2)cn1` [Example 185, (1R,2S)-2-((4-(benzo[d]thiazol-6-ylamino)-7-(1-methyl-1H-pyrazol-4-yl)quinazolin-5-yl)oxy)cyclobutan-1-ol], for which the IC50 (on EGFR L858R; at EGFR (d746-750); in experiment [1]) was not above 10 nM each time.
Regarding `Cn1cc(-c2cc(OC3CCCOC3)c3c(Nc4ccc5ncsc5c4)ncnc3c2)cn1` (stereo not drawn) [Example 414, N-(7-(1-methyl-1H-pyrazol-4-yl)-5-((tetrahydro-2H-pyran-3-yl)oxy)quinazolin-4-yl)benzo[d]thiazol-6-amine], the concentration for half-maximal inhibition (IC50) (at EGFR L858R; on EGFR (d746-750); in experiment [1]) was not above 10 nM throughout.
Consider `Cn1cc(-c2cc(OC3CCN(C4COC4)CC3)c3c(Nc4ccc5ncsc5c4)ncnc3c2)cn1` [Example 318, N-(7-(1-methyl-1H-pyrazol-4-yl)-5-((1-(oxetan-3-yl)piperidin-4-yl)oxy)quinazolin-4-yl)benzo[d]thiazol-6-amine], for which the IC50 (at EGFR L858R; at EGFR (d746-750); in experiment [1]) was not above 10 nM each time.
`COC[C@@H](C)Oc1cc(N2CCNCC2)cc2ncnc(Nc3ccc4ncsc4c3)c12` [Example 195, (R)-N-(5-((1-methoxypropan-2-yl)oxy)-7-(piperazin-1-yl)quinazolin-4-yl)benzo[d]thiazol-6-amine]: the figures for the IC50 (on EGFR L858R; on EGFR (d746-750); in experiment [1]) were not above 10 nM, not above 10 nM and 10.1 to 50 nM, respectively.
Consider `COC[C@@H](C)Oc1cc(-n2cc([C@@H](C)O)cn2)cc2ncnc(Nc3ccc4ncsc4c3F)c12` (single isomer, unassigned) [Example A19], for which the IC50 (at EGFR L858R; at EGFR (d746-750); in experiment [1]) was not above 10 nM each time.
Regarding `CC(C)Oc1cc(O[C@H](C)C2COC2)c2c(Nc3ccc4ncsc4c3)ncnc2c1` [Example 125, (R)-N-(7-isopropoxy-5-(1-(oxetan-3-yl)ethoxy)quinazolin-4-yl)benzo[d]thiazol-6-amine], the half-maximal inhibitory concentration (IC50) is not above 10 nM at EGFR L858R, not above 10 nM at EGFR (d746-750) and 10.1 to 50 nM in experiment [1].
On to `COc1nn(C)cc1-c1cc(O[C@H]2CN(C)C[C@@H]2F)c2c(Nc3ccc4ncsc4c3)ncnc2c1` (single isomer, unassigned) [Example 378], for which the IC50 (at EGFR L858R; on EGFR (d746-750); in experiment [1]) was not above 10 nM throughout.
As to `CN1CC[C@H](Oc2cc(-c3cn(C)nc3OC(F)F)cc3ncnc(Nc4ccc5ncsc5c4)c23)[C@@H](F)C1` (single isomer, unassigned) [Example 368], the IC50 is not above 10 nM at EGFR L858R, not above 10 nM on EGFR (d746-750) and 10.1 to 50 nM in experiment [1].
As for `Cn1cc(-c2cc(OC3CCN(CCO)CC3)c3c(Nc4ccc5ncsc5c4)ncnc3c2)cn1` [Example 312, 2-(4-((4-(benzo[d]thiazol-6-ylamino)-7-(1-methyl-1H-pyrazol-4-yl)quinazolin-5-yl)oxy)piperidin-1-yl)ethan-1-ol], the values for the concentration for half-maximal inhibition (IC50) (on EGFR L858R; at EGFR (d746-750); in experiment [1]) were not above 10 nM, not above 10 nM and 10.1 to 50 nM, respectively.
With `COc1nn(C)cc1-c1cc(O[C@H]2CCN(C)C2=O)c2c(Nc3ccc4ncsc4c3)ncnc2c1` (single isomer, unassigned) [Example 74], the IC50 on EGFR L858R was not above 10 nM; at EGFR (d746-750), not above 10 nM; in experiment [1] it was 10.1 to 50 nM.
As to `Cn1cc(-c2cc(OC3CCCOC3)c3c(Nc4ccc5ncsc5c4)ncnc3c2)cn1` (single isomer, unassigned) [Example 6], the IC50 (at EGFR L858R; at EGFR (d746-750); in experiment [1]) was not above 10 nM in each case.
`OC(Cn1cc(-c2cc(OC3CCOCC3)c3c(Nc4ccc5ncsc5c4)ncnc3c2)cn1)C(F)(F)F` (stereo not drawn) [Example A57, 3-(4-(4-(benzo[d]thiazol-6-ylamino)-5-((tetrahydro-2H-pyran-4-yl)oxy)quinazolin-7-yl)-1H-pyrazol-1-yl)-1,1,1-trifluoropropan-2-ol]: the IC50 at EGFR L858R was not above 10 nM; at EGFR (d746-750) it was not above 10 nM; in experiment [1], 10.1 to 50 nM.

In general, IC50 refers to the concentration that inhibits the measured activity by half.
